Consider 29 compounds from US9187429B2, “Phenyl-tetrahydroisoquinoline derivatives” (Hoffmann-La Roche Inc., priority 2012, dated 2015).

The target in one assay is CYP11B2 (Homo sapiens (Human), UniProt P19099). Kind of assay: G-402 cellular enzyme assay, human CYP11B2 (aldosterone release). It counts as cell-based. Conditions: G-402 cells expressing human CYP11B2, 1 μM Deoxycorticosterone. An excerpt:
(§1) The expression plasmids contains the ORF for either human/cyno CYP11B1 or CYP11B2 under the control of a suitable promoter (CMV-promoter) and a suitable resistance marker (neomycin). Using standard techniques the expression plasmid is transfected into G-402 cells and these cells are then selected for expressing the given resistance markers. Individual cell-clones are then selected and assessed for displaying the desired enzymatic activity using 11-Deoxycorticosterone (Cyp 11B2) or 11-Deoxycortisol (Cyp 11B1) as a substrate.
(§2) G-402 cells expressing CYP11 constructs were established as described above and maintained in McCoy's 5a Medium Modified, ATCC Catalog No. 30-2007 containing 10% FCS and 400 μg/ml G418 (Geneticin) at 37° C. under an atmosphere of 5% CO2/95% air. […] For assaying enzymatic activity, cells were plated onto 96 well plates and incubated for 16 h. An aliquot of the supernatant is then transferred and analyzed for the concentration of the expected product (Aldosterone for CYP11B2; Cortisol for CYP11B1). The concentrations of these steroids can be determined using HTRF assays from CisBio analyzing either Aldosterone or Cortisol.
(§3) Inhibition of the release of produced steroids can be used as a measure of the respective enzyme inhibition by test compounds added during the cellular enzyme assay. The dose dependent inhibition of enzymatic activity by a compound is calculated by means of plotting added inhibitor concentrations (x-axes) vs. measured steroid/product level (y-axes). The inhibition is then calculated by fitting the following 4-parameter sigmoidal function (Morgan-Mercer-Flodin (MMF) model) to the raw data points using the least squares method:
(§4) [formula] wherein, A is the maximum y value, B is the EC50 factor determined using XLFit, C is the minimum y value and D is the slope value.
(§5) EC50 values for compounds claimed herein were tested with the G402-based assay system described. Cyp 11B2 enzyme activity was tested in presence of 1 μM Deoxycorticosterone and variable amounts of inhibitors; Cyp 11B1 enzyme activity was tested in presence of 1 μM Deoxycortisol and variable amounts of inhibitors.

Another assay concerns the target human CYP11B1 (Homo sapiens (Human), UniProt P15538). Briefly: G-402 cellular enzyme assay, human CYP11B1 (cortisol release). Type of assay: cell-based. Conditions: G-402 cells expressing human CYP11B1, 1 μM Deoxycortisol.
Excerpt: as §1, §2, §3, §4, §5

Chain of CYP11B2 (P19099 25-503): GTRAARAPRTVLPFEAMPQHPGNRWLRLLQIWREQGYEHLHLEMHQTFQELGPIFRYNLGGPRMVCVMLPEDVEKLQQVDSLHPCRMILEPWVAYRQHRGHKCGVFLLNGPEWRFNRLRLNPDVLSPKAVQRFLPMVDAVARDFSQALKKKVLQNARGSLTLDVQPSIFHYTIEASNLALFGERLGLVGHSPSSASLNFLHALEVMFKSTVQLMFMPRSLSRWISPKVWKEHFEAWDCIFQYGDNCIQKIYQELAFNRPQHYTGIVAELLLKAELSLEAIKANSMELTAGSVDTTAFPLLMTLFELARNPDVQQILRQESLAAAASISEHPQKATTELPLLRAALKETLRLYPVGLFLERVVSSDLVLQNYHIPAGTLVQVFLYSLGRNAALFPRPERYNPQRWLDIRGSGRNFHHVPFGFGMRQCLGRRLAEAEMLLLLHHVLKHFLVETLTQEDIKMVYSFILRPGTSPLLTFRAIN
Chain of human CYP11B1 (P15538 25-503): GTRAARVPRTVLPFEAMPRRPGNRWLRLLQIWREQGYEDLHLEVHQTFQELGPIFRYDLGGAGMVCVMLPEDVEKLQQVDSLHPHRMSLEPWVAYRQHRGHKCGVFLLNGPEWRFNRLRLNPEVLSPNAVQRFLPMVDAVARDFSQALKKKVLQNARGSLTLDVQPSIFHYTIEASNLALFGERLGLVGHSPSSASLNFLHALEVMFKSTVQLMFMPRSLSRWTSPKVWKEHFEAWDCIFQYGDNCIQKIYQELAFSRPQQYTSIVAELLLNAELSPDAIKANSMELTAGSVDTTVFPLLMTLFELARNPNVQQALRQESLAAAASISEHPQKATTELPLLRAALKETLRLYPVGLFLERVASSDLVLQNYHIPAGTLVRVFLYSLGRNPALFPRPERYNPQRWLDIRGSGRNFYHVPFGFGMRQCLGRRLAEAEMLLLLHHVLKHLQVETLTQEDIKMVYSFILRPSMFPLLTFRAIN

What is called EC50 is the concentration that produces a half-maximal response. High values mean a less potent agent, low ones a more potent agent. In the case of `N#Cc1ccc(-c2cncc3c2CCCC3N)cc1` (racemic) [Example 1, (rac)-4-(8-Amino-5,6,7,8-tetrahydroisoquinolin-4-yl)benzonitrile], the results for the concentration giving a half-maximal response (EC50) on CYP11B2 and on human CYP11B1 were 42 nM and 173 nM, respectively.
Turning to `CCS(=O)(=O)NC1CCCc2c(-c3ccc(C#N)cc3)cncc21` (racemic) [Example 2, (rac)-N-(4-(4-Cyanophenyl)-5,6,7,8-tetrahydroisoquinolin-8-yl)ethanesulfonamide], the EC50 worked out at 207 nM on CYP11B2 and 1090 nM on human CYP11B1.
The corresponding values for `CCCNS(=O)(=O)NC1CCCc2c(-c3ccc(C#N)cc3)cncc21` (racemic) [Example 3, (rac)-N-[4-(4-Cyanophenyl)-5,6,7,8-tetrahydroisoquinolin-8-yl]-N′-propylsulfuric diamide] are 52 nM and 291 nM.
As to `CCNC(=O)NC1CCCc2c(-c3ccc(C#N)cc3)cncc21` (racemic) [Example 4, (rac)-1-(4-(4-Cyanophenyl)-5,6,7,8-tetrahydroisoquinolin-8-yl)-3-ethylurea], the EC50 came out at 220 nM at CYP11B2 and 2170 nM at human CYP11B1.
At human CYP11B1, `CCC(=O)NC1CCCc2c(-c3ccc(C#N)cc3)cncc21` (racemic) [Example 5, (rac)-N-(4-(4-Cyanophenyl)-5,6,7,8-tetrahydroisoquinolin-8-yl)propionamide] showed an EC50 of 760 nM.
`CC(=O)NC1CCCc2c(-c3ccc(C#N)cc3)cncc21` (racemic) [Example 8, (rac)-N-(4-(4-Cyanophenyl)-5,6,7,8-tetrahydroisoquinolin-8-yl)acetamide]: the 50% effective concentration (EC50) amounted to 43 nM at CYP11B2 and 422 nM on human CYP11B1.
The corresponding values for `CCOC(=O)NC1CCCc2c(-c3ccc(C#N)cc3)cncc21` (racemic) [Example 10, (rac)-Ethyl 4-(4-cyanophenyl)-5,6,7,8-tetrahydroisoquinolin-8-ylcarbamate] are 67 nM and 658 nM.
On the same counts, the results for `N#Cc1ccc(-c2cncc3c2CCCC3O)cc1` (racemic) [Example 11, (rac)-4-(8-Hydroxy-5,6,7,8-tetrahydroisoquinolin-4-yl)benzonitrile] are 8 nM and 31 nM.
On the same counts, the results for `CCNC(=O)OC1CCCc2c(-c3ccc(C#N)cc3)cncc21` (racemic) [Example 12, (rac)-4-(4-Cyanophenyl)-5,6,7,8-tetrahydroisoquinolin-8-yl ethylcarbamate] are 25 nM and 30 nM.
`COC1CCCc2c(-c3ccc(C#N)cc3)cncc21` (racemic) [Example 13, (rac)-4-(8-Methoxy-5,6,7,8-tetrahydroisoquinolin-4-yl)benzonitrile]: the figures for the half-maximal effective concentration (EC50) on CYP11B2 and on human CYP11B1 were 10 nM and 8 nM, respectively.
On the same counts, the results for `Cc1ccc(C2(O)CCCc3c(-c4ccc(C#N)cc4)cncc32)cc1C` (racemic) [Example 14, (rac)-4-(8-(3,4-Dimethylphenyl)-8-hydroxy-5,6,7,8-tetrahydroisoquinolin-4-yl)benzonitrile] are 16 nM and 73 nM.
In the case of `CCC(=O)NC1CCc2c(-c3ccc(C#N)cc3)cncc21` (racemic) [Example 17, (rac)-N-(4-(4-Cyanophenyl)-6,7-dihydro-5H-cyclopenta[c]pyridin-7-yl)propionamide], the figures for the concentration giving a half-maximal response (EC50) on CYP11B2 and on human CYP11B1 were 22 nM and 511 nM, respectively.
On the same counts, the results for `CCC(=O)NC1CCCc2c(-c3ccc(F)c(Cl)c3)cncc21` (racemic) [Example 20, (rac)-N-(4-(3-Chloro-4-fluorophenyl)-5,6,7,8-tetrahydroisoquinolin-8-yl)propionamide] are 24 nM and 480 nM.
The corresponding values for `CCC(=O)NC1CCCc2c(-c3ccc(C(F)(F)F)cc3)cncc21` (racemic) [Example 21, (rac)-N-(4-(4-(Trifluoromethyl)phenyl)-5,6,7,8-tetrahydroisoquinolin-8-yl)propionamide] are 82 nM and 7090 nM.
Regarding `CCC(=O)NC1CCCc2c(-c3ccc(Cl)cc3)cncc21` (racemic) [Example 24, (rac)-N-(4-(4-Chlorophenyl)-5,6,7,8-tetrahydroisoquinolin-8-yl)propionamide], the EC50 was 31 nM on CYP11B2 and 1420 nM at human CYP11B1.
On the same counts, the results for `CCC(=O)NC1CCCc2c(-c3ccc(F)c(C)c3)cncc21` (racemic) [Example 27, (rac)-N-(4-(4-Fluoro-3-methylphenyl)-5,6,7,8-tetrahydroisoquinolin-8-yl)propionamide] are 14 nM and 625 nM.
The corresponding values for `CCC(=O)NC1CCCc2c(-c3ccc(Cl)cc3F)cncc21` (racemic) [Example 30, (rac)-N-(4-(4-Chloro-2-fluorophenyl)-5,6,7,8-tetrahydroisoquinolin-8-yl)propionamide] are 28 nM and 1500 nM.
The corresponding values for `CCC(=O)NC1CCCc2c(-c3ccc(C(F)(F)F)cc3F)cncc21` (racemic) [Example 33, (rac)-N-(4-(2-Fluoro-4-(trifluoromethyl)phenyl)-5,6,7,8-tetrahydroisoquinolin-8-yl)propionamide] are 159 nM and 14700 nM.
Take `CCC(=O)NC1CCCc2c(-c3ccc(Cl)c(F)c3)cncc21` (racemic) [Example 36, (rac)-N-(4-(4-Chloro-3-fluorophenyl)-5,6,7,8-tetrahydroisoquinolin-8-yl)propionamide]: the figures for the EC50 at CYP11B2 and at human CYP11B1 were 14 nM and 1010 nM, respectively.
For `CCC(=O)NC1CCCc2c(-c3ccc(C(F)(F)F)c(F)c3)cncc21` (racemic) [Example 39, (rac)-N-(4-(3-Fluoro-4-(trifluoromethyl)phenyl)-5,6,7,8-tetrahydroisoquinolin-8-yl)propionamide], the EC50 at CYP11B2 turned out to be 29 nM; on human CYP11B1, 3240 nM.
As for `CCC(=O)NC1CCCc2c(-c3ccc(C#N)cc3)cncc21` (single isomer, unassigned; (+)) [Example 7, (+)-(R or S)—N-(4-(4-Cyanophenyl)-5,6,7,8-tetrahydroisoquinolin-8-yl)propionamide], a half-maximal response at human CYP11B1 (EC50) required 263 nM.
On CYP11B2, `C[C@@H](O)C(=O)NC1CCCc2c(-c3ccc(C(F)(F)F)cc3)cncc21` (single isomer, unassigned; (+)) [Example 47, (+)-(R)-2-Hydroxy-N—[(R or S)-4-(4-trifluoromethyl-phenyl)-5,6,7,8-tetrahydro-isoquinolin-8-yl]-propionamide] yielded a half-maximal effective concentration (EC50) of 5750 nM.
As to `CCC(=O)NC1CCCc2c(-c3ccc(C#N)cc3)cncc21` (single isomer, unassigned; (-)) [Example 6, (−)-(S or R)—N-(4-(4-Cyanophenyl)-5,6,7,8-tetrahydroisoquinolin-8-yl)propionamide], on human CYP11B1, the concentration giving a half-maximal response (EC50) is 11700 nM.
Compound `CCC(=O)NC1CCCc2c(-c3ccc(C(F)(F)F)cc3)cncc21` (single isomer, unassigned; (-)) [Example 22, (−)-(S or R)—N-(4-(4-(Trifluoromethyl)phenyl)-5,6,7,8-tetrahydroisoquinolin-8-yl)propionamide] showed an EC50 on CYP11B2 of 6380 nM.
On the same count and under the same terms, in the case of `CCC(=O)NC1CCCc2c(-c3ccc(Cl)cc3F)cncc21` (single isomer, unassigned; (-)) [Example 31, (−)-(S or R)—N-(4-(4-Chloro-2-fluorophenyl)-5,6,7,8-tetrahydroisoquinolin-8-yl)propionamide] it was 1220 nM; in that of `CCC(=O)NC1CCc2c(-c3ccc(C(F)(F)F)cc3)cncc21` (single isomer, unassigned; (-)) [Example 50, (−)-(S or R)—N-(4-(4-(Trifluoromethyl)phenyl)-6,7-dihydro-5H-cyclopenta[c]pyridin-7-yl)propionamide], 5770 nM; in that of `C[C@@H](O)C(=O)NC1CCc2c(-c3ccc(C(F)(F)F)cc3)cncc21` (single isomer, unassigned; (-)) [Example 53, (−)-(R)-2-Hydroxy-N—((S or R)-4-(4-(trifluoromethyl)phenyl)-6,7-dihydro-5H-cyclopenta[c]pyridin-7-yl)propanamide], 9100 nM.
Same read-out and setting: for `CCC(=O)NC1CCc2c(-c3ccc(F)c(C)c3)cncc21` (single isomer, unassigned; (-)) [Example 59, (−)-(S or R)—N-(4-(4-Fluoro-3-methylphenyl)-6,7-dihydro-5H-cyclopenta[c]pyridin-7-yl)propionamide] the value was 1660 nM; for `CCS(=O)(=O)NC1CCc2c(-c3ccc(C(F)(F)F)c(F)c3)cncc21` (single isomer, unassigned; (-)) [Example 72, (−)-(S or R)—N-(4-(3-Fluoro-4-(trifluoromethyl)phenyl)-6,7-dihydro-5H-cyclopenta[c]pyridin-7-yl)ethanesulfonamide], 16500 nM.
